Data: patent US8163795B2, “Chroman derivatives, medicaments and use in therapy” (Marshall Edwards, Inc., priority 2004, dated 2012)

Assays:
MM200 melanoma cell line [1] = assay: Proliferation assay (MTT); format: cell-based; details: Table 2.2; Melanoma MM200; read-out: IC50
HT-29 (Colorectal) = assay: Proliferation assay (MTT); format: cell-based; details: Homo sapiens, HT-29, Table 2.2; Colorectal HT-29
Experimental: (§1) All cultures were supplemented with 10% FCS (fetal calf serum CSL, Australia), penicillin (100 U/ml), streptomycin ([…]), L-glutamine (2 mM) and sodium bicarbonate (1.2 g/L), and cultured at 37° C. in a humidified atmosphere of 5% CO2. All cell lines were purchased from ATCC (Maryland, USA) except where noted.
(§2) IC50 values were determined for each cell line. Cells were seeded in 96-well plates at an appropriate cell density as determined from growth kinetics analysis and cultured for 5 days in the absence and presence of the test compounds. Cell proliferation was assessed after the addition of 20 μl of 3-4,5 dimethylthiazol-2,5-diphenyl tetrazolium bromide (MTT, 2.5 mg/ml in PBS, Sigma) for 3-4 hrs at 37° C. according to manufacturer's instructions. IC50 values were calculated from semi-log plots of % of control proliferation on the y-axis against log dose on the x-axis.

[2] = system: PC3 prostate cancer cell line; assay: Proliferation assay (MTT); format: cell-based; details: Table 2.2
Experimental: as §1, §2

HTB-138 (Glioma) = assay: Proliferation assay (MTT); format: cell-based; details: Table 2.2; Glioma HTB-138
Experimental: as §1, §2

CCRF-CEM (Leukemic) = assay: Proliferation assay (MTT); format: cell-based; details: Homo sapiens, CCRF-CEM, Table 2.2; Leukaemia CCRF-CEM
Experimental: as §1, §2

TNFα = assay: Inhibition of TNFα in LPS-stimulated murine macrophages (RAW 264.7); format: cell-based, mouse; details: for Inhibition of TNFα, dose dependence: over the concentration ranges tested
Experimental: The mouse macrophage cell line RAW 264.7 was cultured in DMEM supplemented with FCS, 2 mM glutamine and 50 U/ml penicillin/streptomycin. Subconfluent cells were detached from the flask by gentle scraping and 24-well plates seeded at 5×10^5 cells per well and allowed to adhere for 1 hr. Cells were treated with either test agent (in 0.025% DMSO) or vehicle alone, 1 hr prior to the addition of 50 ng/ml LPS. After incubation for 16 hrs, culture media was collected and stored at −80° C. for TNFα measurement using an enzyme immunometric assay (Becton Dickinson).

PGE2 = assay: Eicosanoid synthesis in LPS-stimulated murine macrophages (RAW 264.7); format: cell-based, mouse; details: 10 μM; negative values indicate inhibition
Experimental: (§3) The mouse macrophage cell line RAW 264.7 was cultured in DMEM supplemented with foetal calf serum (FCS), 2 mM glutamine and 50 U/ml penicillin/streptomycin. Subconfluent cells were detached from the flask by gentle scraping and 24-well plates seeded at 5×10^5 cells per well and allowed to adhere for 1 hr. Cells were then treated either test compound at a concentration of 10 μM (in 0.025% DMSO) or vehicle alone, and incubated for 1 hr. LPS 50 ng/ml (LPS—Sigma-Aldrich) was then added. After incubation for 16 hrs, culture media was collected and stored at −80° C. for ecosanoid measurements using enzyme immunometric assays (PGE2 and TXB2—Cayman Chemical).
(§4) Table 16: Percentage change in eicosanoid synthesis after incubating test compound at 10 μM compared with incubation with vehicle alone.

TXB2 = assay: as above; format: cell-based, mouse; details: 10 μM; negative values indicate inhibition
Experimental: as §3, §4

[3] = system: MDA-MB-468 breast cancer cell line; assay: Proliferation assay (MTT); format: cell-based; details: Homo sapiens, MDA-MB-468, Table 2.2; Breast MDA-MB-468; read-out: IC50
[4] = system: HPAC (CRL-2119) pancreatic cancer cell line; assay: Proliferation assay (MTT); format: cell-based, human; details: Homo sapiens, HPAC, Table 2.2; Pancreatic HPAC; read-out: IC50
[5] = system: CP70 ovarian cancer cell line; assay: Proliferation assay (MTT); format: cell-based; details: Table 2.2 (further studies); Ovarian CP70; read-out: IC50
4405 melanoma cell line = assay: HMC combination with paclitaxel (synergy); format: cell-based; details: Table 10; single agent, 24 hr exposure; read-out: IC50, 24 hr (monotherapy)
Experimental: as §2
(§5) 3-D model analysis of the cytotoxic interaction between drug A and drug B enables the representation of predicted inhibitory effect of two drugs in combination in 3 dimensions to reveal actual regions of synergy or antagonism. The 3D synergy plots are based on a theory of “Theretical Additivity” (TA) as outlined by Kanzawa et al (Int. J. Cancer 71, 311-319 (1997)). Theoretical Additivity was calculated from the cytotoxicities of drug A and drug B as monotherapies using the following formula which assumes the drugs are mutually exclusive inhibitors: […]
(§6) The TA is calculated for each combination of drug concentrations and subtracted from the observed experimental effect for each combination to give a measurement of synergisitic action.
HMC synergy with paclitaxel was assessed either in combination over 5 days exposure or in sequence (HMC→paclitaxel) against the 4405 melanoma cell line. It was difficult to assess for synergisitic toxicity using a change in IC50 as a measure of synergy due to HMC toxicity as monotherapy (Table 10). […] Evidence of synergy using the HMC-paclitaxel combination was further assessed using the HMC→paclitaxel sequence (24 hr exposure to each compound in sequence) against the melanoma cell line 4405. Using change in IC50 to assess for synergy it was noted that HMC at concentrations of 2 μM markedly chemosensitised the 4405 cells to paclitaxel by >1000 fold (Table 10). HMC-induced chemosensitisation of […] cells to paclitaxel was confirmed using 3D analysis of the data.

[6] = system: Mel-RM melanoma cell line; assay: HMC combination with gemcitabine (synergy); format: cell-based; details: Table 9, single agent
Experimental: as §2, §5, §6
HMC synergy with gemcitabine was assessed either in combination over 5 days exposure or in sequence (HMC→gemcitabine) against the Mel-RM melanoma cell line. It was difficult to assess for synergisitic toxicity using a change in IC50 as a measure of synergy due to HMC toxicity as monotherapy (Table 9). […] Evidence of synergy using the HMC-gemcitabine combination was further assessed using the HMC→gemcitabine sequence (24 hr exposure to each compound in sequence) against the melanoma cell line Mel-RM. Using change in IC50 to assess for synergy it was noted that HMC at concentrations of 2 and 1 μM markedly chemosensitised the Mel-RM cells to gemcitabine by >1000 fold. HMC-induced chemosensitisation of Mel-RM cells to gemcitabine was confirmed using 3D analysis of the data.

NCI-H460 (Lung) = assay: Proliferation assay (MTT); format: cell-based; details: Homo sapiens, NCI-H460, Table 2.2; NSC Lung NCI-H460
Experimental: as §1, §2

[7] = system: Mel-RM melanoma cell line; assay: HMC combination with doxorubicin (synergy); format: cell-based; details: Table 12, single agent
Experimental: (§7) IC50 values were determined for each cell line. Cells were seeded in 96-well plates at an appropriate cell density as determined from growth kinetics analysis and cultured for 5 days in the absence and presence of the test compounds. […] IC50 values were calculated from semi-log plots of % of control proliferation on the y-axis against log dose on the x-axis.
(§8) 3-D model analysis of the cytotoxic interaction between drug A and drug B enables the representation of predicted inhibitory effect of two drugs in combination in 3 dimensions to reveal actual regions of synergy or antagonism. […] Theoretical Additivity was calculated from the cytotoxicities of drug A and drug B as monotherapies using the following formula which assumes the drugs are mutually exclusive inhibitors: […]
HMC synergy with doxorubicin was assessed either in combination over 5 days exposure or in sequence (HMC→doxorubicin) against the Mel-RM melanoma cell line.

MM200 melanoma cell line [8] = assay: HMC combination with topotecan (synergy); format: cell-based; details: Table 11, single agent
Experimental: as §7, §8
HMC synergy with topotecan was assessed either in combination over 5 days exposure or in sequence (HMC→topotecan) against the MM200 melanoma cell line.

[9] = Concentration 10 μM, RAW 264.7, LPS 50 ng/ml, 16 hrs
[10] = 120 h, 5 days exposure, read-out: IC50, Combined (monotherapy)
[11] = 24 hr exposure, read-out: IC50, 24 hr (monotherapy)

SMILES | IC50 (MM200 melanoma cell line [1]) [µM] | IC50 (HT-29 (Colorectal)) [µM] | IC50 [2] [µM] | IC50 (HTB-138 (Glioma)) [µM] | IC50 (CCRF-CEM (Leukemic)) [µM] | IC50 [3] [µM] | IC50 [4] [µM] | IC50 [5] [µM] | Inhibition of TNFα (TNFα; Concentration 0.001 μM) | Inhibition of TNFα (TNFα; Concentration 0.1 μM) | Inhibition of TNFα (TNFα; Concentration 1 μM) | Inhibition of TNFα (TNFα; [9]) | other results
CC(=O)O[C@H]1C(=O)[C@@]2(C)[C@H]([C@H](OC(=O)c3ccccc3)[C@]3(O)C[C@H](OC(=O)[C@H](O)[C@@H](NC(=O)c4ccccc4)c4ccccc4)C(C)=C1C3(C)C)[C@]1(OC(C)=O)CO[C@@H]1C[C@@H]2O [Paclitaxel, paclitaxel, reference compound] | – | – | – | – | – | – | – | – | – | – | – | – | IC50 (4405 melanoma cell line): 0.584 nM
Nc1ccn([C@@H]2O[C@H](CO)[C@@H](O)C2(F)F)c(=O)n1 [Gemcitabine, gemcitabine, reference compound] | – | – | – | – | – | – | – | – | – | – | – | – | IC50 [6, 10]: 3.88 nM; IC50 [6, 11]: 4.67 nM
COc1ccc(C2c3ccc(O)cc3OCC2c2ccc(OC)c(OC)c2)cc1 (stereo not shown) [Compound 4, 3-(3,4-dimethoxyphenyl)-4-(4-methoxyphenyl)chroman-7-ol] | – | – | – | – | – | – | – | – | −14.3 | −6.3 | −11.9 | −6.1 | Inhibition of TNFα (TNFα; Concentration 0.01 μM): −11.3
COc1cc(O)cc(OC)c1C1c2ccc(O)cc2OCC1c1ccc(O)cc1 (stereo not shown) [Compound 7, 3-(4-hydroxyphenyl)-4-(2,6-dimethoxy-4-hydroxyphenyl)chroman-7-ol] | – | – | – | – | – | – | – | – | 19.2 | −1.4 | −25.4 | −26.2 | Inhibition of TNFα, dose dependence (TNFα): inhibit TNFα in murine macrophages in a dose dependent manner
COc1cccc2c1C(=O)c1c(O)c3c(c(O)c1C2=O)C[C@@](O)(C(=O)CO)C[C@@H]3O[C@H]1C[C@H](N)[C@H](O)[C@H](C)O1 [Doxorubicin, doxorubicin, reference compound] | – | – | – | – | – | – | – | – | – | – | – | – | IC50 [7, 10]: 190 nM; IC50 [7, 11]: 100 nM
CC[C@@]1(O)C(=O)OCc2c1cc1n(c2=O)Cc2cc3c(CN(C)C)c(O)ccc3nc2-1 [Topotecan, topotecan, reference compound] | – | – | – | – | – | – | – | – | – | – | – | – | IC50 (MM200 melanoma cell line [8]; [10]): 95 nM; IC50 (MM200 melanoma cell line [8]; [11]): 2220 nM

The next lines start with results.

IC50 (MM200 melanoma cell line [1]) [µM] | IC50 (HT-29 (Colorectal)) [µM] | IC50 [2] [µM] | IC50 (HTB-138 (Glioma)) [µM] | IC50 (CCRF-CEM (Leukemic)) [µM] | IC50 [3] [µM] | IC50 [4] [µM] | IC50 [5] [µM] | SMILES | Inhibition of TNFα (TNFα; Concentration 0.001 μM) | Inhibition of TNFα (TNFα; Concentration 0.1 μM) | Inhibition of TNFα (TNFα; Concentration 1 μM) | Inhibition of TNFα (TNFα; [9]) | other results
> 100 | > 100 | 116 ± 57 | > 100 | 92 ± 81.6 | 28.7 ± 3.6 | > 100 | > 100 | COc1ccc(C2COc3cc(OC)ccc3C2c2ccc(OC)cc2)cc1 (stereo not shown) [Compound 6, 3-(4-methoxyphenyl)-4-(4-methoxyphenyl)-7-methoxychroman] | 1.0 | −10.4 | −13.0 | −48.7 | Inhibition of TNFα, dose dependence (TNFα): inhibit TNFα in murine macrophages in a dose dependent manner; Percentage change in PGE2 synthesis vs vehicle alone (PGE2): −37.7%; Percentage change in TXB2 synthesis vs vehicle alone (TXB2): −16.4%
7.34 | 59.4 | 4.2 ± 0.02 | 3.77 | 4.02 | 1.9 | 24.4 ± 12 | 3 ± 1.2 | Oc1ccc(C2COc3cc(O)ccc3C2c2ccccc2)cc1 (stereo not shown) [Compound 2, 3-(4-hydroxyphenyl)-4-phenylchroman-7-ol] | – | – | – | – | IC50 (NCI-H460 (Lung)): 5.4 ± 2.1 µM; Percentage change in PGE2 synthesis vs vehicle alone (PGE2): −12.6%; Percentage change in TXB2 synthesis vs vehicle alone (TXB2): 16%
93 ± 2.9 | 45 ± 4.7 | 32.5 ± 2.1 | 53.5 ± 14 | 73 ± 51.6 | 56.6 | 79 ± 56 | > 100 | Nc1cccc(C2c3ccc(O)cc3OCC2c2ccc(O)cc2)c1 (stereo not shown) [Compound 14, 3-(4-hydroxyphenyl)-4-(3-aminophenyl)chroman-7-ol] | – | – | – | – | IC50 (NCI-H460 (Lung)): 65 µM
